Measured values reported in ChEMBL document CHEMBL4837216, “Polymyxin B-inspired non-hemolytic tyrocidine A analogues with significantly enhanced activity against gram-negative bacteria: How cationicity impacts cell specificity and antibacterial mechanism” (Eur J Med Chem, 2021).
The source made the active and inactive calls.

How the values were obtained:
Escherichia coli [1] = assay: Antibacterial activity against Escherichia coli ATCC 8739 assessed as inhibition of bacterial growth measured after 17 passages by turbidity based analysis; assay type: functional, organism-based
Escherichia coli [2] = assay: Antibacterial activity against Escherichia coli ATCC 8739 infected in C57BL/6 mouse peritonitis sepsis model assessed as reduction in inflammatory cell infiltration in kidney at 10 mg/kg, ip administered for 12 hrs by Hematoxylin-Eosin staining based microscopic analysis; assay type: functional, organism-based
Escherichia coli [3] = assay: Antibacterial activity against Escherichia coli ATCC 8739 infected in C57BL/6 mouse peritonitis sepsis model assessed as bacterial load in kidney at 10 mg/kg, ip administered for 12 hrs (reference value: 5.15 +/-0.4 logCFU/gm); assay type: functional
Staphylococcus aureus [4] = assay: Bactericidal activity against Staphylococcus aureus assessed as decrease in cell survival at 1XMIC measured after 24 hrs by colony counting assay; assay type: functional, organism-based
Lipid bilayer [5] = assay: Binding affinity to eukaryotic cell membrane mimic DOPC/Cholesterol (3:1) large unilamellar vesicles assessed as calcein leakage measured after 30 mins fluorescence based assay
[6] = Hemolytic activity in human RBC assessed as induction of cell lysis measured after 30 mins by microtiter plate method; assay type: cell-based, Erythrocyte; conditions: human red blood cells (erythrocytes)
Cell membrane [7] = assay: Induction of cytoplasmic membrane permeabilization in Escherichia coli at 0.06 to 8 times MIC measured for 60 mins by propidium iodide dye based fluorescence assay
Cell membrane [8] = assay: Induction of cytoplasmic membrane permeabilization in Staphylococcus aureus at 0.06 to 8 times MIC measured for 60 mins by propidium iodide dye based fluorescence assay; assay type: subcellular
Escherichia coli [9] = assay: Antibacterial activity against Escherichia coli ATCC 8739 infected in C57BL/6 mouse peritonitis sepsis model assessed as reduction in inflammatory cell infiltration in liver at 10 mg/kg, ip administered for 12 hrs by Hematoxylin-Eosin staining based microscopic analysis; assay type: functional, organism-based
Acinetobacter baumannii = assay: Antibacterial activity against Acinetobacter baumannii ATCC 19606 assessed as inhibition of bacterial growth measured after 24 hrs by turbidity based analysis; assay type: functional; conditions: ATCC 19606 = CIP 70.34 = JCM 6841
Escherichia coli [10] = assay: Antibacterial activity against Escherichia coli ATCC 8739 infected in C57BL/6 mouse peritonitis sepsis model assessed as bacterial load in lung at 10 mg/kg, ip administered for 12 hrs (reference value: 5.47 +/-0.73 logCFU/gm); assay type: functional
Cell membrane [11] = assay: Induction of cytoplasmic membrane permeabilization in Escherichia coli at 0.06 to 8 times MIC measured for 10 mins by propidium iodide dye based fluorescence assay
[12] = Stability of the compound in human serum at 100 uM measured after 24 hrs by RP-HPLC analysis; assay type: ADME, cell-free
Escherichia coli [13] = assay: Antibacterial activity against Escherichia coli ATCC 8739 infected in C57BL/6 mouse peritonitis sepsis model assessed as reduction in bleeding with normal shaped alveoli at 10 mg/kg, ip administered for 12 hrs by Hematoxylin-Eosin staining based microscopic analysis; assay type: functional, organism-based
Cell membrane [14] = assay: Induction of cell membrane disruption in Escherichia coli assessed as increase in fluorescence intensity at 2 times MIC measured after 60 mins by PI staining based flow cytometric analysis (reference value: 0.1%); assay type: subcellular
Escherichia coli [15] = assay: Antibacterial activity against Escherichia coli ATCC 8739 infected in C57BL/6 mouse peritonitis sepsis model assessed as bacterial load in spleen at 10 mg/kg, ip administered for 12 hrs (reference value: 6.01 +/-0.59 logCFU/gm); assay type: functional
L02 = assay: Cytotoxicity against human L02 cells assessed as reduction in cell viability at >10 uM incubated for 24 hrs by CCK8 assay; assay type: cell-based; conditions: l02, 24 h
Cell membrane [16] = assay: Induction of cytoplasmic membrane depolarization in Escherichia coli assessed as increase in fluorescence intensity a 1XMIC by DiSC3-5 dye based fluorescence method
Cell membrane [17] = assay: Induction of cytoplasmic membrane permeabilization in Escherichia coli assessed as increase in red fluorescence intensity at 2 times MIC measured after 60 mins by fluorescence microscopy; assay type: subcellular
Cell membrane [18] = assay: Induction of cell membrane disruption in Escherichia coli assessed as increase in fluorescence intensity at 4 times MIC measured after 60 mins by PI staining based flow cytometric analysis (reference value: 0.1%); assay type: subcellular
Cell membrane [19] = assay: Induction of cell membrane disruption in Escherichia coli assessed as increase in fluorescence intensity at 1 times MIC measured after 60 mins by PI staining based flow cytometric analysis (reference value: 0.1%); assay type: subcellular
Staphylococcus aureus [20] = assay: Antibacterial activity against Staphylococcus aureus ATCC 6538 assessed as inhibition of bacterial growth measured after 17 passages by turbidity based analysis; assay type: functional, organism-based
Staphylococcus aureus [21] = assay: Antibacterial activity against Staphylococcus aureus ATCC 6538 assessed as inhibition of bacterial growth measured after 24 hrs by turbidity based analysis; assay type: functional
Lipopolysaccharide (LPS) = assay: Displacement of dansyl-polymyxinB from LPS (unknown origin) assessed as decrease in fluorescence intensity by fluorescence spectrophotometric analysis
Escherichia coli [22] = assay: Antibacterial activity against Escherichia coli ATCC 8739 infected in C57BL/6 mouse peritonitis sepsis model assessed as reduction in inflammatory cell infiltration in lung at 10 mg/kg, ip administered for 12 hrs by Hematoxylin-Eosin staining based microscopic analysis; assay type: functional, organism-based
Cell membrane [23] = assay: Induction of cell membrane disruption in Escherichia coli assessed as wrinkled cells at 20 uM incubated for 1 hr by scanning electron microscopy
Escherichia coli [24] = assay: Antibacterial activity against Escherichia coli ATCC 8739 infected in C57BL/6 mouse peritonitis sepsis model assessed as clear boundaries between white and red pulps in spleen at 10 mg/kg, ip administered for 12 hrs by Hematoxylin-Eosin staining based microscopic analysis; assay type: functional, organism-based
Cell membrane [25] = assay: Induction of cell membrane disruption in Staphylococcus aureus assessed as cell morphological damage at 20 uM incubated for 1 hr by scanning electron microscopy; assay type: subcellular
Cell membrane [26] = assay: Induction of cytoplasmic membrane permeabilization in Staphylococcus aureus at 0.06 to 8 times MIC measured for 10 mins by propidium iodide dye based fluorescence assay
Cell membrane [27] = assay: Induction of cytoplasmic membrane depolarization in Staphylococcus aureus assessed as increase in fluorescence intensity a 1XMIC by DiSC3-5 dye based fluorescence method
Escherichia coli [28] = assay: Antibacterial activity against Escherichia coli ATCC 8739 infected in C57BL/6 mouse peritonitis sepsis model assessed as glomerulus and renal tubules with normal shape in kidney at 10 mg/kg, ip administered for 12 hrs by Hematoxylin-Eosin staining based microscopic analysis; assay type: functional, organism-based
Pseudomonas aeruginosa = assay: Antibacterial activity against Pseudomonas aeruginosa ATCC 27853 assessed as inhibition of bacterial growth measured after 24 hrs by turbidity based analysis; assay type: functional
Escherichia coli [29] = assay: Bactericidal activity against Escherichia coli assessed as decrease in cell survival at 1XMIC measured after 24 hrs by colony counting assay; assay type: functional, organism-based
Lipid bilayer [30] = assay: Binding affinity to bacterial inner membrane mimic DOPE/DOPG (3:1) large unilamellar vesicles assessed as calcein leakage measured after 30 mins fluorescence based assay
Cell membrane [31] = assay: Induction of outer membrane permeabilization to NPN in Escherichia coli ATCC 8739 cells assessed as increase in fluorescence intensity by NPN-probe based fluorescence spectrophotometric analysis; assay type: subcellular
Cell membrane [32] = assay: Induction of cytoplasmic membrane permeabilization in Staphylococcus aureus assessed as increase in red fluorescence intensity at 2 times MIC measured after 60 mins by fluorescence microscopy
Staphylococcus aureus [33] = assay: Antibacterial activity against methicillin resistant Staphylococcus aureus assessed as inhibition of bacterial growth measured after 24 hrs by turbidity based analysis; assay type: functional
Escherichia coli [34] = assay: Antibacterial activity against Escherichia coli ATCC 8739 assessed as inhibition of bacterial growth measured after 24 hrs by turbidity based analysis; assay type: functional
Escherichia coli [35] = assay: Antibacterial activity against Escherichia coli ATCC 8739 infected in C57BL/6 mouse peritonitis sepsis model assessed as bacterial load in liver at 10 mg/kg, ip administered for 12 hrs (reference value: 5.7 +/-0.35 logCFU/gm); assay type: functional
Enterococcus faecalis = assay: Antibacterial activity against Enterococcus faecalis ATCC 29212 assessed as inhibition of bacterial growth measured after 24 hrs by turbidity based analysis; assay type: functional
Escherichia coli [36] = assay: Antibacterial activity against Escherichia coli ATCC 8739 infected in C57BL/6 mouse peritonitis sepsis model assessed as clear boundaries between hepatic cell cords in liver at 10 mg/kg, ip administered for 12 hrs by Hematoxylin-Eosin staining based microscopic analysis; assay type: functional, organism-based
Escherichia coli [37] = assay: Antibacterial activity against Escherichia coli ATCC 8739 infected in C57BL/6 mouse peritonitis sepsis model assessed as reduction in inflammatory cell infiltration in spleen at 10 mg/kg, ip administered for 12 hrs by Hematoxylin-Eosin staining based microscopic analysis; assay type: functional, organism-based

CC(C)C[C@@H]1NC(=O)[C@H](CCCN)NC(=O)[C@H](CCCN)NC(=O)[C@H](CCCN)NC(=O)[C@H](CCCN)NC(=O)[C@H](CCCN)NC(=O)[C@@H](Cc2ccccc2)NC(=O)[C@H](Cc2ccccc2)NC(=O)[C@@H]2CCCN2C(=O)[C@@H](Cc2ccccc2)NC1=O
2.49 log10CFU/g: Activity (Escherichia coli [35])
active: Activity (Escherichia coli [1]) | Activity (Escherichia coli [2]) | Activity (Staphylococcus aureus [4]) | Activity (Cell membrane [7]) | Activity (Cell membrane [8]) | Activity (Escherichia coli [9]) | Activity (Escherichia coli [13]) | Activity (Cell membrane [16]) | Activity (Cell membrane [17]) | Activity (Staphylococcus aureus [20]) | Activity (Lipopolysaccharide (LPS)) | Activity (Escherichia coli [22]) | Activity (Cell membrane [23]) | Activity (Escherichia coli [24]) | Activity (Cell membrane [25]) | Activity (Cell membrane [27]) | Activity (Escherichia coli [28]) | Activity (Escherichia coli [29]) | Activity (Lipid bilayer [30]) | Activity (Cell membrane [31]) | Activity (Cell membrane [32]) | Activity (Escherichia coli [36]) | Activity (Escherichia coli [37])
3.15 log10CFU/g: Activity (Escherichia coli [10])
5 µM: MIC (Staphylococcus aureus [21]) | MIC (Escherichia coli [34]) | MIC (Enterococcus faecalis)
78.3%: Activity (Cell membrane [14])
Stable: Stabilty [12]
inactive: Activity (Lipid bilayer [5]) | Activity (Cell membrane [11]) | Activity (Cell membrane [26])
42.7%: Activity (Cell membrane [19])
3.48 log10CFU/g: Activity (Escherichia coli [3])
> 400 µM: HC50 at 0.5 h [6]
4.25 log10CFU/g: Activity (Escherichia coli [15])
91.8%: Activity (Cell membrane [18])
Toxic: Activity (L02)
10 µM: MIC (Acinetobacter baumannii) | MIC (Pseudomonas aeruginosa) | MIC (Staphylococcus aureus [33])
